Measured values published in ChEMBL document CHEMBL1147781, “Design, synthesis and in vitro antimalarial activity of an acylhydrazone library” (Bioorg Med Chem Lett, 2006).

Tested on: Plasmodium falciparum
Assay: Growth inhibition of chloroquine-resistant Plasmodium falciparum FcB1 at 1 uM
Format: functional

COc1ccc(O)c(/C=N/NC(=O)c2ccccc2)c1
inhibition at 1 µM: 38%

COc1ccc(O)c(/C=N/NC(=O)c2cccs2)c1
inhibition at 1 µM: 24%

O=C(N/N=C/c1cc(O)ccc1O)c1ccco1
inhibition at 1 µM: 21%

O=C(N/N=C/c1cc(O)ccc1O)c1ccc(O)cc1
inhibition at 1 µM: 4%

CC(=O)N/N=C/c1cc(O)ccc1O
inhibition at 1 µM: 25%

O=C(N/N=C/c1ccc(O)cc1O)c1ccc(Cl)cc1
inhibition at 1 µM: 16%

COc1ccc(O)c(/C=N/NC(C)=O)c1
inhibition at 1 µM: 3%

O=C(N/N=C/c1cc([N+](=O)[O-])ccc1O)c1ccc([N+](=O)[O-])cc1
inhibition at 1 µM: 31%

CC(=O)N/N=C/c1cc([N+](=O)[O-])ccc1O
inhibition at 1 µM: 22%

COc1ccc(O)c(/C=N/NC(=O)c2ccncc2)c1
inhibition at 1 µM: 34%

O=C(N/N=C/c1ccc(O)cc1O)c1ccco1
inhibition at 1 µM: 13%

COc1ccc(/C=N/NC(=O)c2ccc(O)cc2)c(O)c1
inhibition at 1 µM: 14%

COc1cccc(/C=N/NC(=O)c2ccc([N+](=O)[O-])cc2)c1O
inhibition at 1 µM: 32%

COc1ccc(O)c(/C=N/NC(=O)c2cccnc2)c1
inhibition at 1 µM: 24%

O=C(N/N=C/c1cc([N+](=O)[O-])ccc1O)c1cccs1
inhibition at 1 µM: 21%

CC(=O)N/N=C/c1cccc(O)c1O
inhibition at 1 µM: 29%

COc1cccc(/C=N/NC(=O)Cc2ccccc2)c1O
inhibition at 1 µM: 30%

O=C(N/N=C/c1cccc(O)c1O)c1ccc(O)cc1
inhibition at 1 µM: 20%

CCN(CC)c1ccc(/C=N/NC(=O)c2ccncc2)c(O)c1
inhibition at 1 µM: 18%

CC(C)(C)c1ccc(C(=O)N/N=C/c2cccc(O)c2O)cc1
inhibition at 1 µM: 41%

CCN(CC)c1ccc(/C=N/NC(C)=O)c(O)c1
inhibition at 1 µM: 34%

O=C(N/N=C/c1cc(O)ccc1O)c1ccccc1
inhibition at 1 µM: 0%

O=C(N/N=C/c1ccccc1O)c1ccncc1 [SALINAZID]
inhibition at 1 µM: 22%

CCN(CC)c1ccc(/C=N/NC(=O)c2ccco2)c(O)c1
inhibition at 1 µM: 23%

CC(C)(C)c1ccc(C(=O)N/N=C/c2cc(O)ccc2O)cc1
inhibition at 1 µM: 38%

COc1ccc(O)c(/C=N/NC(=O)c2ccco2)c1
inhibition at 1 µM: 33%

O=C(Cc1ccccc1)N/N=C/c1cc([N+](=O)[O-])ccc1O
inhibition at 1 µM: 0%

Cc1ccc(O)c(/C=N/NC(=O)c2cccnc2)c1
inhibition at 1 µM: 33%

O=C(N/N=C/c1cc(O)ccc1O)c1cccnc1
inhibition at 1 µM: 7%

CC(=O)N/N=C/c1cc(C)ccc1O
inhibition at 1 µM: 32%

Cc1ccc(O)c(/C=N/NC(=O)Cc2ccccc2)c1
inhibition at 1 µM: 19%

CC(C)(C)c1ccc(C(=O)N/N=C/c2cc(C(C)(C)C)ccc2O)cc1
inhibition at 1 µM: 48%

O=C(N/N=C/c1ccc(O)cc1O)c1cccs1
inhibition at 1 µM: 13%

COc1cccc(/C=N/NC(=O)c2ccc(O)cc2)c1O
inhibition at 1 µM: 16%

COc1ccc(C(=O)N/N=C/c2cc(C)ccc2O)cc1
inhibition at 1 µM: 28%

COc1ccc(/C=N/NC(=O)c2cccs2)c(O)c1
inhibition at 1 µM: 24%

COc1cccc(/C=N/NC(=O)c2cccs2)c1O
inhibition at 1 µM: 16%

O=C(N/N=C/c1cc(O)ccc1O)c1ccc(Cl)cc1
inhibition at 1 µM: 25%

COc1ccc(/C=N/NC(=O)c2ccc(Cl)cc2)c(O)c1
inhibition at 1 µM: 8%

COc1ccc(C(=O)N/N=C/c2ccccc2O)cc1
inhibition at 1 µM: 14%

CC(C)(C)c1ccc(C(=O)N/N=C/c2ccc(O)cc2O)cc1
inhibition at 1 µM: 37%

O=C(N/N=C/c1ccccc1O)c1ccc([N+](=O)[O-])cc1
inhibition at 1 µM: 4%

CC(C)(C)c1ccc(C(=O)N/N=C/c2cc([N+](=O)[O-])ccc2O)cc1
inhibition at 1 µM: 36%

COc1ccc(O)c(/C=N/NC(=O)c2ccc(Cl)cc2)c1
inhibition at 1 µM: 24%

O=C(N/N=C/c1cc([N+](=O)[O-])ccc1O)c1cccnc1
inhibition at 1 µM: 19%

Cc1ccc(O)c(/C=N/NC(=O)c2cccs2)c1
inhibition at 1 µM: 23%

COc1cccc(/C=N/NC(=O)c2ccc(Cl)cc2)c1O
inhibition at 1 µM: 36%

O=C(N/N=C/c1cc([N+](=O)[O-])ccc1O)c1ccco1
inhibition at 1 µM: 16%

O=C(N/N=C/c1cc([N+](=O)[O-])ccc1O)c1ccc(Cl)cc1
inhibition at 1 µM: 31%

Cc1ccc(O)c(/C=N/NC(=O)c2ccc(O)cc2)c1
inhibition at 1 µM: 24%

COc1cccc(/C=N/NC(=O)c2ccncc2)c1O
inhibition at 1 µM: 43%

CC(C)(C)c1ccc(O)c(/C=N/NC(=O)c2ccc(O)cc2)c1
inhibition at 1 µM: 31%

O=C(N/N=C/c1cc(Br)ccc1O)c1cccs1
inhibition at 1 µM: 38%

O=C(N/N=C/c1cccc(O)c1O)c1ccc(Cl)cc1
inhibition at 1 µM: 13%

COc1ccc(/C=N/NC(=O)c2ccncc2)c(O)c1
inhibition at 1 µM: 35%

O=C(N/N=C/c1cc(O)ccc1O)c1ccc([N+](=O)[O-])cc1
inhibition at 1 µM: 28%

O=C(N/N=C/c1cccc(O)c1O)c1ccco1
inhibition at 1 µM: 20%

COc1cccc(/C=N/NC(=O)c2cccnc2)c1O
inhibition at 1 µM: 32%

CC(C)(C)c1ccc(O)c(/C=N/NC(=O)Cc2ccccc2)c1
inhibition at 1 µM: 14%

COc1cccc(/C=N/NC(=O)c2ccccc2)c1O
inhibition at 1 µM: 10%

COc1ccc(O)c(/C=N/NC(=O)Cc2ccccc2)c1
inhibition at 1 µM: 45%

O=C(N/N=C/c1cc(O)ccc1O)c1ccncc1
inhibition at 1 µM: 26%

O=C(N/N=C/c1cc([N+](=O)[O-])ccc1O)c1ccc(O)cc1
inhibition at 1 µM: 4%

COc1ccc(/C=N/NC(=O)c2ccco2)c(O)c1
inhibition at 1 µM: 45%

Cc1ccc(O)c(/C=N/NC(=O)c2ccc([N+](=O)[O-])cc2)c1
inhibition at 1 µM: 46%

COc1ccc(/C=N/NC(=O)c2ccccc2)c(O)c1
inhibition at 1 µM: 32%

Cc1ccc(O)c(/C=N/NC(=O)c2ccncc2)c1
inhibition at 1 µM: 8%

Cc1ccc(O)c(/C=N/NC(=O)c2ccco2)c1
inhibition at 1 µM: 37%

CCN(CC)c1ccc(/C=N/NC(=O)c2ccc(OC)cc2)c(O)c1
inhibition at 1 µM: 39%

COc1ccc(C(=O)N/N=C/c2cc(OC)ccc2O)cc1
inhibition at 1 µM: 18%

O=C(N/N=C/c1ccc(O)cc1O)c1cccnc1
inhibition at 1 µM: 23%

CC(=O)N/N=C/c1cc(C(C)(C)C)ccc1O
inhibition at 1 µM: 32%

COc1ccc(/C=N/NC(=O)c2ccc([N+](=O)[O-])cc2)c(O)c1
inhibition at 1 µM: 45%

COc1ccc(C(=O)N/N=C/c2cccc(OC)c2O)cc1
inhibition at 1 µM: 37%

O=C(N/N=C/c1cccc(O)c1O)c1cccs1
inhibition at 1 µM: 29%

O=C(N/N=C/c1ccccc1O)c1ccccc1
inhibition at 1 µM: 35%

COc1ccc(C(=O)N/N=C/c2ccc(OC)cc2O)cc1
inhibition at 1 µM: 9%

O=C(Cc1ccccc1)N/N=C/c1ccccc1O
inhibition at 1 µM: 27%

O=C(N/N=C/c1ccc(O)cc1O)c1ccc(O)cc1
inhibition at 1 µM: 15%

COc1cccc(/C=N/NC(=O)c2ccc(C(C)(C)C)cc2)c1O
inhibition at 1 µM: 39%

CC(C)(C)c1ccc(O)c(/C=N/NC(=O)c2ccncc2)c1
inhibition at 1 µM: 40%

O=C(N/N=C/c1ccccc1O)c1ccc(Cl)cc1
inhibition at 1 µM: 25%

O=C(N/N=C/c1cc(Br)ccc1O)c1ccc(O)cc1
inhibition at 1 µM: 10%

CC(C)(C)c1ccc(C(=O)N/N=C/c2ccccc2O)cc1
inhibition at 1 µM: 43%

O=C(N/N=C/c1cccc(O)c1O)c1cccnc1
inhibition at 1 µM: 16%

O=C(N/N=C/c1cc(Br)ccc1O)c1cccnc1
inhibition at 1 µM: 21%

COc1ccc(C(=O)N/N=C/c2cc(Br)ccc2O)cc1
inhibition at 1 µM: 29%

COc1ccc(C(=O)N/N=C/c2cccc(O)c2O)cc1
inhibition at 1 µM: 21%

COc1ccc(O)c(/C=N/NC(=O)c2ccc([N+](=O)[O-])cc2)c1
inhibition at 1 µM: 14%

CC(=O)N/N=C/c1cc(Br)ccc1O
inhibition at 1 µM: 17%

O=C(N/N=C/c1cc(Br)ccc1O)c1ccc([N+](=O)[O-])cc1
inhibition at 1 µM: 17%

COc1ccc(/C=N/NC(=O)Cc2ccccc2)c(O)c1
inhibition at 1 µM: 41%

COc1ccc(C(=O)N/N=C/c2ccc(O)cc2O)cc1
inhibition at 1 µM: 29%

O=C(N/N=C/c1cccc(O)c1O)c1ccccc1
inhibition at 1 µM: 30%

O=C(N/N=C/c1ccccc1O)c1ccco1
inhibition at 1 µM: 21%

COc1cccc(/C=N/NC(C)=O)c1O
inhibition at 1 µM: 33%

CCN(CC)c1ccc(/C=N/NC(=O)c2cccs2)c(O)c1
inhibition at 1 µM: 37%

O=C(Cc1ccccc1)N/N=C/c1cc(Br)ccc1O
inhibition at 1 µM: 33%

O=C(N/N=C/c1cc(Br)ccc1O)c1ccccc1
inhibition at 1 µM: 47%

O=C(N/N=C/c1ccccc1O)c1cccs1
inhibition at 1 µM: 13%

O=C(N/N=C/c1cccc(O)c1O)c1ccc([N+](=O)[O-])cc1
inhibition at 1 µM: 24%

CCN(CC)c1ccc(/C=N/NC(=O)c2ccc(Cl)cc2)c(O)c1
inhibition at 1 µM: 45%

O=C(N/N=C/c1cccc(O)c1O)c1ccncc1
inhibition at 1 µM: 11%

O=C(N/N=C/c1cc([N+](=O)[O-])ccc1O)c1ccccc1
inhibition at 1 µM: 21%

COc1ccc(/C=N/NC(C)=O)c(O)c1
inhibition at 1 µM: 4%

O=C(N/N=C/c1ccc(O)cc1O)c1ccccc1
inhibition at 1 µM: 14%

COc1ccc(/C=N/NC(=O)c2cccnc2)c(O)c1
inhibition at 1 µM: 38%

COc1ccc(O)c(/C=N/NC(=O)c2ccc(O)cc2)c1
inhibition at 1 µM: 20%

COc1ccc(O)c(/C=N/NC(=O)c2ccc(C(C)(C)C)cc2)c1
inhibition at 1 µM: 47%

O=C(N/N=C/c1cc(Br)ccc1O)c1ccc(Cl)cc1
inhibition at 1 µM: 36%

COc1ccc(C(=O)N/N=C/c2cc(O)ccc2O)cc1
inhibition at 1 µM: 39%

Cc1ccc(O)c(/C=N/NC(=O)c2ccccc2)c1
inhibition at 1 µM: 49%

CC(C)(C)c1ccc(O)c(/C=N/NC(=O)c2cccnc2)c1
inhibition at 1 µM: 32%

O=C(Cc1ccccc1)N/N=C/c1cc(O)ccc1O
inhibition at 1 µM: 4%

O=C(N/N=C/c1ccccc1O)c1cccnc1 [N'-(2-HYDROXYBENZYLIDENE)NICOTINOHYDRAZIDE]
inhibition at 1 µM: 26%

CCN(CC)c1ccc(/C=N/NC(=O)c2cccnc2)c(O)c1
inhibition at 1 µM: 2%

COc1ccc(C(=O)N/N=C/c2cc([N+](=O)[O-])ccc2O)cc1
inhibition at 1 µM: 26%

COc1cccc(/C=N/NC(=O)c2ccco2)c1O
inhibition at 1 µM: 41%

O=C(N/N=C/c1cc(O)ccc1O)c1cccs1
inhibition at 1 µM: 19%

O=C(N/N=C/c1cc(Br)ccc1O)c1ccco1
inhibition at 1 µM: 35%

O=C(N/N=C/c1ccccc1O)c1ccc(O)cc1
inhibition at 1 µM: 11%

CC(=O)N/N=C/c1ccccc1O
inhibition at 1 µM: 0%
